Measured values taken from BigSolDB 2.1.

NC(=O)c1ncn([C@@H]2O[C@H](CO)[C@@H](O)[C@H]2O)n1
solubility (mole fraction)
Settings | in DMSO | in acetone | in ethanol | in formic acid | in methanol | in n-butanol | in n-propanol | in sec-butanol | in water
283.15 K | – | 3.77e-05 | 5.95e-05 | 0.0483 | 0.000576 | 7.44e-05 | 4.57e-05 | 7.85e-05 | 0.00879
288.15 K | – | 4.45e-05 | 8.55e-05 | 0.0533 | 0.000665 | 8.95e-05 | 5.73e-05 | 8.47e-05 | 0.0104
293.15 K | 0.0532 | 5.43e-05 | 0.000117 | 0.0644 | 0.000743 | 0.000117 | 7.99e-05 | 9.62e-05 | 0.0123
298.15 K | 0.0659 | 6.36e-05 | 0.000158 | 0.0785 | 0.000865 | 0.000149 | 0.000102 | 0.000104 | 0.0144
303.15 K | 0.075 | 7.87e-05 | 0.000209 | 0.091 | 0.00103 | 0.000175 | 0.000131 | 0.000122 | 0.0165
308.15 K | 0.0821 | 9.41e-05 | 0.000282 | 0.104 | 0.00122 | 0.00021 | 0.000161 | 0.000135 | 0.019
313.15 K | 0.095 | 0.000114 | 0.000339 | 0.114 | 0.00138 | 0.000246 | 0.000194 | 0.000161 | 0.0225
318.15 K | 0.11 | 0.000139 | 0.000435 | 0.131 | 0.00169 | 0.000288 | 0.000235 | 0.000196 | 0.0269
323.15 K | 0.125 | 0.000153 | 0.000552 | 0.159 | 0.00194 | 0.000362 | 0.000295 | 0.000224 | 0.0305
